Laboratory results as given in patent US12344606B2, “Next-generation modulators of stimulator of interferon genes (STING)” (RYVU THERAPEUTICS S.A., priority 2019, dated 2025).

Experiments:
human STING = human STING (Homo sapiens, UniProt Q86WV6); assay: Fluorescence Thermal Shift assay (hSTING FTS binding assay); settings: STING 0.1 mg/ml, 20 min preincubation, SyproOrange
Experimental: Compounds of the present invention were tested for binding to human STING in Fluorescence Thermal Shift assay. STING was preincubated with the compounds for 20 minutes in 50 mM Hepes, 150 mM NaCl, pH 7.5 in 16 μl volume, following by adding 4 μl of SyproOrange dye dilution (ThermoFisher, cat no. S-6651). Final STING concentration was 0.1 mg/ml. Thermal unfolding was performed in Real-Time PCR QuantStudio 6 Flex System (Applied Biosystems), from 25 to 99° C., with continuous ramp mode and ramp rate 0.033° C./s. The data were analyzed using Protein Thermal Shift Software (ThermoFisher).

[1] = tested on: interferon regulatory factor (IRF) pathway in THP-1 dual cells; assay: THP-1 Dual reporter assay, IRF pathway (luciferase); format: cell-based; settings: Homo sapiens, THP1-Dual; 18 h stimulation, luminescence
Experimental: (§1) Compounds of the present invention were tested for their activity using THP-1 dual cells (Invivogen, cat no. thpd-nfis) allowing for simultaneous study of NF-κB pathway and the interferon regulatory factor (IRF) pathway. THP-1 dual cells contain luciferase reporter gene under the control of an ISG54 (interferon-stimulated gene) minimal promoter in conjunction with five interferon-stimulated response elements and a secreted embryonic alkaline phosphatase reporter gene under the control an IFN (interferon)-β minimal promoter fused to five copies of the NF-κB consensus transcriptional response element with three copies of the c-Rel binding site. Following 18 h of stimulation with STING agonist, medium was collected and transferred onto fresh cell culture plate. To verify activity of the IRF pathway, luminescence activity was measured with standard laboratory plate reader immediately after addition 10 μl of the medium to 50 μl (or 40 μl) of luminescence reagent (Invivogen, cat. No. rep-qlc2). To verify activity of NF-κB pathway, 20 μl (or 10 μl) of the medium was mixed with 80 μl of a detection medium (Invivogen, cat. No. rep-qb2) and incubated for 2 hours (or 1 hour) at 37° C. in a humidified atmosphere containing 5% CO2. Next, absorbance at 630 nm (or 655 nm) was recorded using standard laboratory plate reader.

[2] = tested on: NF-κB pathway in THP-1 dual cells; assay: THP-1 Dual reporter assay, NF-κB pathway (SEAP); format: cell-based; settings: Homo sapiens, THP1-Dual; 18 h stimulation, absorbance; read-out: THP1 Dual EC50 (μM) NFkB
Experimental: as §1

human STING, sequence (Q86WV6 whole entry H232R): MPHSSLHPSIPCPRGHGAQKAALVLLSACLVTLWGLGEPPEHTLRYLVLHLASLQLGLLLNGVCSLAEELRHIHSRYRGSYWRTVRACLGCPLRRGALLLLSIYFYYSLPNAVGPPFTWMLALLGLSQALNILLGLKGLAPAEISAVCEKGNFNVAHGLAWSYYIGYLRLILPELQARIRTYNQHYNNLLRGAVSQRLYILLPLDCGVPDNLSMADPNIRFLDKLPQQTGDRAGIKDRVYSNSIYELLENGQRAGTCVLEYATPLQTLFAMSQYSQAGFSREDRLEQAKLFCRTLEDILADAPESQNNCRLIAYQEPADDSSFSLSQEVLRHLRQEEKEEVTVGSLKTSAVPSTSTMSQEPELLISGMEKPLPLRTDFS

SMILES | hSTING FTS binding assay (ΔT C.°) (human STING) | EC50 [1] [µM] | EC50 [2] [µM]
COc1nc2c(cc1F)c(=O)c(CN(Cc1ccnc(C)c1)[C@H]1CCCN(c3ccc(C)nc3)C1)cn2C1CC1 [Example 44, 1-cyclopropyl-6-fluoro-7-methoxy-3-({[(3S)-1-(6-methylpyridin-3-yl)piperidin-3-yl][(2-methylpyridin-4-yl)methyl]amino}methyl)-1,4-dihydro-1,8-naphthyridin-4-one] | ++ (ΔTm>10° C.) | ≤ 1 | ≤ 1
Cc1ccc(N2CCC[C@H](N(Cc3ccnc(C)c3)Cc3cn(C4CC4)c4nc(Cl)c(F)cc4c3=O)C2)cn1 [Example 42, 7-chloro-1-cyclopropyl-6-fluoro-3-({[(3S)-1-(6-methylpyridin-3-yl)piperidin-3-yl][(2-methylpyridin-4-yl)methyl]amino}methyl)-1,4-dihydro-1,8-naphthyridin-4-one] | ++ (ΔTm>10° C.) | ≤ 1 | ≤ 1
Cc1cc(CN(Cc2cn(C)c3ccccc3c2=O)[C@H]2CCCN(c3cc[nH]c(=O)c3)C2)ccn1 [Example 30, 1-methyl-3-({[(2-methylpyridin-4-yl)methyl][(3S)-1-(2-oxo-1,2-dihydropyridin-4-yl)piperidin-3-yl]amino}methyl)-1,4-dihydroquinolin-4-one] | + (ΔTm<10° C.) | ≥ 10 | ≥ 10
Cc1cc(CN(Cc2cn(C)c3ccccc3c2=O)[C@H]2CCCN(c3nnc(C)o3)C2)ccn1 [Example 53, 1-methyl-3-({[(3S)-1-(5-methyl-1,3,4-oxadiazol-2-yl)piperidin-3-yl][(2-methylpyridin-4-yl)methyl]amino}methyl)-1,4-dihydroquinolin-4-one] | + (ΔTm<10° C.) | ≥ 10 | 1 to 10
Cc1cc(CN(Cc2cn(C)c3ccccc3c2=O)[C@H]2CCCN(c3cc(=O)[nH]cn3)C2)ccn1 [Example 22, 1-methyl-3-({[(2-methylpyridin-4-yl)methyl][(3S)-1-(6-oxo-1,6-dihydropyrimidin-4-yl)piperidin-3-yl]amino}methyl)-1,4-dihydroquinolin-4-one] | ++ (ΔTm>10° C.) | ≥ 10 | ≥ 10
COc1cc(CN(Cc2cn(C3CC3)c3cc(F)c(F)cc3c2=O)[C@H]2CCCN(c3cccnc3)C2)ccn1 [Example 11, 1-cyclopropyl-6,7-difluoro-3-({[(2-methoxypyridin-4-yl)methyl][(3S)-1-(pyridin-3-yl)piperidin-3-yl]amino}methyl)-1,4-dihydroquinolin-4-one] | ++ (ΔTm>10° C.) | ≤ 1 | ≤ 1
COC(=O)C1CCN(c2ccc3c(=O)c(CN(Cc4ccnc(C)c4)[C@H]4CCCN(c5cccnc5)C4)cn(C)c3c2)CC1 [Example 29, Methyl 1-[1-methyl-3-({[(2-methylpyridin-4-yl)methyl][(3S)-1-(pyridin-3-yl)piperidin-3-yl]amino}methyl)-4-oxo-1,4-dihydroquinolin-7-yl]piperidine-4-carboxylate] | ++ (ΔTm>10° C.) | ≤ 1 | ≤ 1
Cc1ccc(N2CCC[C@H](N(Cc3ccnc(C)c3)Cc3cn(C4CC4)c4cc(N5CCNC6(CC6)C5)c(F)cc4c3=O)C2)cn1 [Example 52, 1-cyclopropyl-7-{4,7-diazaspiro[2.5]octan-7-yl}-6-fluoro-3-({[(3S)-1-(6-methylpyridin-3-yl)piperidin-3-yl][(2-methylpyridin-4-yl)methyl]amino}methyl)-1,4-dihydroquinolin-4-one] | ++ (ΔTm>10° C.) | ≤ 1 | ≤ 1
Cc1cc(CN(Cc2cn(C)c3ccccc3c2=O)[C@@H]2CN(c3cccnc3)CC[C@H]2O)ccn1 [Example 24, 3-({[(3R,4R)-4-hydroxy-1-(pyridin-3-yl)piperidin-3-yl][(2-methylpyridin-4-yl)methyl]amino}methyl)-1-methyl-1,4-dihydroquinolin-4-one] | + (ΔTm<10° C.) | ≥ 10 | ≥ 10
Cc1cc(CN(Cc2cn(C)c3ccccc3c2=O)[C@H]2CCCN(c3cc(Cl)ncn3)C2)ccn1 [Example 17, 3-({[(3S)-1-(6-chloropyrimidin-4-yl)piperidin-3-yl][(2-methylpyridin-4-yl)methyl]amino}methyl)-1-methyl-1,4-dihydroquinolin-4-one] |  | 1 to 10 | 1 to 10
Cc1ccc(N2CCC[C@H](N(Cc3ccnc(C)c3)Cc3cn(C)c4cc(Br)ccc4c3=O)C2)cn1 [Example 37, 7-bromo-1-methyl-3-({[(3S)-1-(6-methylpyridin-3-yl)piperidin-3-yl][(2-methylpyridin-4-yl)methyl]amino}methyl)-1,4-dihydroquinolin-4-one] | ++ (ΔTm>10° C.) | ≤ 1 | ≤ 1
Cc1ccc(N2CCC[C@H](N(Cc3ccnc(C)c3)Cc3cn(C)c4c(Br)cccc4c3=O)C2)cn1 [Example 60, 8-bromo-1-methyl-3-({[(3S)-1-(6-methylpyridin-3-yl)piperidin-3-yl][(2-methylpyridin-4-yl)methyl]amino}methyl)-1,4-dihydroquinolin-4-one] |  | ≤ 1 | ≤ 1
Cc1ccc(N2CCC[C@H](N(Cc3ccnc(C)c3)Cc3cn(C(C)C)c4nc(Cl)c(F)cc4c3=O)C2)cn1 [Example 61, 7-chloro-6-fluoro-3-({[(3S)-1-(6-methylpyridin-3-yl)piperidin-3-yl][(2-methylpyridin-4-yl)methyl]amino}methyl)-1-(propan-2-yl)-1,4-dihydro-1,8-naphthyridin-4-one] |  | ≤ 1 | ≤ 1
Cc1ccc(N2CCC[C@H](N(Cc3ccnc(C)c3)Cc3cn(C)c4ccccc4c3=O)C2)cn1 [Example 7, 1-methyl-3-({[(3S)-1-(6-methylpyridin-3-yl)piperidin-3-yl][(2-methylpyridin-4-yl)methyl]amino}methyl)-1,4-dihydroquinolin-4-one] |  | ≤ 1 | ≤ 1
Cc1ccc(N2CCC[C@H](N(Cc3ccnc(C)c3)Cc3cn(C4CC4)c4cc(C5COCCN5)ccc4c3=O)C2)cn1 (stereo partly drawn) [Example 64, 1-Cyclopropyl-3-({[(3S)-1-(6-methylpyridin-3-yl)piperidin-3-yl][(2-methylpyridin-4-yl)methyl]amino}methyl)-7-(morpholin-3-yl)-1,4-dihydroquinolin-4-one] |  | ≤ 1 | ≤ 1
Cc1cc(CN(Cc2cn(C3CC3)c3cc(Cl)c(F)cc3c2=O)[C@H]2CCCN(c3cccnc3)C2)ccn1 [Example 33, 7-chloro-1-cyclopropyl-6-fluoro-3-({[(2-methylpyridin-4-yl)methyl][(3S)-1-(pyridin-3-yl)piperidin-3-yl]amino}methyl)-1,4-dihydroquinolin-4-one] |  | ≤ 1 | ≤ 1
COc1nc2c(cc1F)c(=O)c(CN(Cc1ccnc(C)c1)[C@H]1CCCN(c3ccc(C)nc3)C1)cn2C(C)C [Example 62, 6-fluoro-7-methoxy-3-({[(3S)-1-(6-methylpyridin-3-yl)piperidin-3-yl][(2-methylpyridin-4-yl)methyl]amino}methyl)-1-(propan-2-yl)-1,4-dihydro-1,8-naphthyridin-4-one] |  | ≤ 1 | ≤ 1
Cc1cc(CN(Cc2cn(C)c3ccccc3c2=O)[C@H]2CCCN(c3ccnc(Cl)n3)C2)ccn1 [Example 19, 3-({[(3S)-1-(2-chloropyrimidin-4-yl)piperidin-3-yl][(2-methylpyridin-4-yl)methyl]amino}methyl)-1-methyl-1,4-dihydroquinolin-4-one] | + (ΔTm<10° C.) |  | 
Cc1ccc(N2CCC[C@H](N(Cc3ccnc(C)c3)Cc3cn(C4CC4)c4cc(C5=CCCCC5)c(F)cc4c3=O)C2)cn1 [Example 57, 7-(cyclohex-1-en-1-yl)-1-cyclopropyl-6-fluoro-3-({[(3S)-1-(6-methylpyridin-3-yl)piperidin-3-yl][(2-methylpyridin-4-yl)methyl]amino}methyl)-1,4-dihydroquinolin-4-one] |  | ≤ 1 | ≤ 1
Cc1cc(CN(Cc2cn(C)c3ccccc3c2=O)[C@H]2CCCN(c3ccnc(Cl)n3)C2)ccn1 [Example 54, 3-({[(3S)-1-(2-chloropyrimidin-4-yl)piperidin-3-yl][(2-methylpyridin-4-yl)methyl]amino}methyl)-1-methyl-1,4-dihydroquinolin-4-one] |  | 1 to 10 | 1 to 10
Cc1cc(CN(Cc2cn(C)c3ccccc3c2=O)[C@H]2CCCN(c3cccnc3)C2)n(C)n1 [Example 63, 3-({[(1,3-dimethyl-1H-pyrazol-5-yl)methyl][(3S)-1-(pyridin-3-yl)piperidin-3-yl]amino}methyl)-1-methyl-1,4-dihydroquinolin-4-one] |  | 1 to 10 | ≥ 10
